# Measured values taken from patent US20180256673A1, “METHODS FOR TREATING FUNGAL INFECTIONS” (priority 2015, published 2018).
# Where two headings read alike, the source gives them in different places. Starred links: 1 amine or outer side, 2 acyl side, 3 side chain; linkers in the order of their positions; H or OH if unused. Positions of bridges follow the written chain, without caps; N, C: chain ends. Non-standard residues stand in square brackets, D forms with d. Residues, ends and D or L forms follow the SMILES beside them. *: point of attachment. hTyr(3S-OH,4S-OH,3'-OSO3H) = N[C@H](C(=O)O)[C@H](O)[C@@H](O)c1ccc(O)c(OS(=O)(=O)O)c1; Orn(4R-OH,5R-OH) = O=C([C@H](C[C@@H](O)[C@@H](O)N[*:3])N[*:1])[*:2]; Pro(3S-OH,4S-Me) = C[C@H]1CN[C@H](C(=O)O)[C@H]1O; X1 = CCCCCOc1ccc(-c2cc(-c3ccc(C(=O)*)cc3)no2)cc1; Gln(3R-OH) = NC(=O)C[C@@H](O)[C@H](N)C(=O)O; Hyp = O=C(O)[C@@H]1C[C@@H](O)CN1
# Columns and labels:
# Candida krusei = test: Broth microdilution of invasive fungal isolates (CLSI M27-A3/M38-A2); format: cell-based
# [1] = test system: C. albicans vaginal isolates; test: Susceptibility testing of VVC clinical isolates at pH 7 and 4 (CLSI M27-A3); format: cell-based, Candida albicans; conditions: Candida albicans
# Candida dubliniensis = test: Broth microdilution of invasive fungal isolates (CLSI M27-A3/M38-A2); format: cell-based
# [2] = test system: Cryptococcus neoformans var. grubii; test: as above; format: cell-based
# [3] = test system: C. parapsilosis vaginal isolates; test: Susceptibility testing of VVC clinical isolates at pH 7 and 4 (CLSI M27-A3); format: cell-based, Candida parapsilosis
# Aspergillus fumigatus = test: Broth microdilution of invasive fungal isolates (CLSI M27-A3/M38-A2), MEC; format: cell-based; conditions: 56 isolates
# Candida glabrata = test: microbe, parasite or virus in culture; format: cell-based
structure (smiles),measurement,setting,value
"CCCCCOc1ccc(-c2cc(-c3ccc(C(=O)N[C@H]4C[C@@H](O)[C@@H](O)NC(=O)[C@@H]5[C@@H](O)[C@@H](C)CN5C(=O)[C@H]([C@H](O)CC(N)=O)NC(=O)[C@H]([C@H](O)[C@@H](O)c5ccc(O)c(OS(=O)(=O)O)c5)NC(=O)[C@@H]5C[C@@H](O)CN5C(=O)[C@H]([C@@H](C)O)NC4=O)cc3)no2)cc1 [MCF, micafungin] (X1-[Orn(4R-OH,5R-OH)]T[Hyp][hTyr(3S-OH,4S-OH,3'-OSO3H)][Gln(3R-OH)][Pro(3S-OH,4S-Me)]; lactam 1-C)",Cumulative % of isolates inhibited at MIC 0.06 μg/mL,Candida krusei; 16 isolates,(50.0) %
same,Cumulative % of isolates inhibited at MIC 0.12 μg/mL,Candida krusei; 16 isolates,(100.0) %
same,Number of isolates inhibited at MIC 0.06 μg/mL,Candida krusei; 16 isolates,8
same,Number of isolates inhibited at MIC 0.12 μg/mL,Candida krusei; 16 isolates,8
same,MIC50,Candida krusei; Pichia kudriavzevii,0.06 µg/mL
same,MIC90,Candida krusei; Pichia kudriavzevii,0.12 µg/mL
same,MIC90,"[1]; 24 h, pH 4",0.125 µg/mL
same,MIC90,"[1]; 24 h, pH 7",0.008 µg/mL
same,MIC90,"[1]; 48 h, pH 4",0.25 µg/mL
same,MIC,"[1]; 48 h, pH 4, fluconazole-resistant isolate 1, pH 4",0.016 µg/mL
same,MIC,"[1]; 48 h, pH 4, fluconazole-resistant isolate 2, pH 4",0.016 µg/mL
same,MIC,"[1]; 48 h, pH 4, fluconazole-resistant isolate 3, pH 4",0.016 µg/mL
same,MIC,"[1]; 48 h, pH 4, fluconazole-resistant isolate 4, pH 4",0.03 µg/mL
same,MIC,"[1]; 48 h, pH 4, fluconazole-resistant isolate 5, pH 4",0.016 µg/mL
same,MIC,"[1]; 48 h, pH 4, fluconazole-resistant isolate 6, pH 4",0.03 µg/mL
same,MIC,"[1]; 48 h, pH 4, fluconazole-resistant isolate 7, pH 4",0.25 µg/mL
same,MIC,"[1]; 48 h, pH 4, fluconazole-resistant isolate 8, pH 4",0.06 µg/mL
same,MIC,"[1]; 48 h, pH 4, fluconazole-resistant isolate 9, pH 4",0.125 µg/mL
same,MIC,"[1]; 48 h, pH 4, fluconazole-resistant isolate 10, pH 4",0.06 µg/mL
same,MIC90,"[1]; 48 h, pH 7",0.03 µg/mL
same,MIC,"[1]; 48 h, pH 7, fluconazole-resistant isolate 1, pH 7",0.008 µg/mL
same,MIC,"[1]; 48 h, pH 7, fluconazole-resistant isolate 2, pH 7",0.016 µg/mL
same,MIC,"[1]; 48 h, pH 7, fluconazole-resistant isolate 3, pH 7",0.008 µg/mL
same,MIC,"[1]; 48 h, pH 7, fluconazole-resistant isolate 4, pH 7",0.008 µg/mL
same,MIC,"[1]; 48 h, pH 7, fluconazole-resistant isolate 5, pH 7",0.06 µg/mL
same,MIC,"[1]; 48 h, pH 7, fluconazole-resistant isolate 6, pH 7",0.008 µg/mL
same,MIC,"[1]; 48 h, pH 7, fluconazole-resistant isolate 7, pH 7",0.06 µg/mL
same,MIC,"[1]; 48 h, pH 7, fluconazole-resistant isolate 8, pH 7",0.008 µg/mL
same,MIC,"[1]; 48 h, pH 7, fluconazole-resistant isolate 9, pH 7",0.06 µg/mL
same,MIC,"[1]; 48 h, pH 7, fluconazole-resistant isolate 10, pH 7",0.008 µg/mL
same,Cumulative % of isolates inhibited at MIC 0.015 μg/mL,Candida dubliniensis; 11 isolates,(27.3) %
same,Cumulative % of isolates inhibited at MIC 0.03 μg/mL,Candida dubliniensis; 11 isolates,(100.0) %
same,Number of isolates inhibited at MIC 0.015 μg/mL,Candida dubliniensis; 11 isolates,3
same,Number of isolates inhibited at MIC 0.03 μg/mL,Candida dubliniensis; 11 isolates,8
same,MIC50,Candida dubliniensis; Candida dubliniensis,0.03 µg/mL
same,MIC90,Candida dubliniensis; Candida dubliniensis,0.03 µg/mL
same,Cumulative % of isolates inhibited at MIC >8 μg/mL,[2]; 19 isolates,(100.0) %
same,Number of isolates inhibited at MIC >8 μg/mL,[2]; 19 isolates,19
same,MIC50,[2]; Cryptococcus neoformans,8 µg/mL
same,MIC90,[2]; Cryptococcus neoformans,8 µg/mL
same,MIC90,"[3]; 24 h, pH 4",0.5 µg/mL
same,MIC90,"[3]; 24 h, pH 7",1 µg/mL
same,MIC90,"[3]; 48 h, pH 4",1 µg/mL
same,MIC90,"[3]; 48 h, pH 7",2 µg/mL
same,Cumulative % of isolates inhibited at MEC 0.015 μg/mL,Aspergillus fumigatus,(96.4) %
same,Cumulative % of isolates inhibited at MEC 0.03 μg/mL,Aspergillus fumigatus,(100.0) %
same,Cumulative % of isolates inhibited at MEC ≤0.008 μg/mL,Aspergillus fumigatus,(28.6) %
same,MEC50,Aspergillus fumigatus,.015 µg/mL
same,MEC90,Aspergillus fumigatus,.015 µg/mL
same,Number of isolates inhibited at MEC 0.015 μg/mL,Aspergillus fumigatus,38
same,Number of isolates inhibited at MEC 0.03 μg/mL,Aspergillus fumigatus,2
same,Number of isolates inhibited at MEC ≤0.008 μg/mL,Aspergillus fumigatus,16
same,Cumulative % of isolates inhibited at MIC 0.015 μg/mL,Candida glabrata,(74.0) %
same,Cumulative % of isolates inhibited at MIC 0.03 μg/mL,Candida glabrata,(95.0) %
same,Cumulative % of isolates inhibited at MIC 0.06 μg/mL,Candida glabrata,(95.0) %
same,Cumulative % of isolates inhibited at MIC 0.12 μg/mL,Candida glabrata,(95.0) %
same,Cumulative % of isolates inhibited at MIC 0.25 μg/mL,Candida glabrata,(95.0) %
same,Cumulative % of isolates inhibited at MIC 0.5 μg/mL,Candida glabrata,(95.0) %
same,Cumulative % of isolates inhibited at MIC 1 μg/mL,Candida glabrata,(95.0) %
same,Cumulative % of isolates inhibited at MIC 2 μg/mL,Candida glabrata,(98.0) %
same,Cumulative % of isolates inhibited at MIC 4 μg/mL,Candida glabrata,(100.0) %
same,Cumulative % of isolates inhibited at MIC ≤0.008 μg/mL,Candida glabrata,(1.0) %
same,MIC according to CLSI method,Candida glabrata,4 µg/mL
same,Number of isolates inhibited at MIC 0.015 μg/mL,Candida glabrata,73
same,Number of isolates inhibited at MIC 0.03 μg/mL,Candida glabrata,21
same,Number of isolates inhibited at MIC 0.06 μg/mL,Candida glabrata,0
same,Number of isolates inhibited at MIC 0.12 μg/mL,Candida glabrata,0
same,Number of isolates inhibited at MIC 0.25 μg/mL,Candida glabrata,0
same,Number of isolates inhibited at MIC 0.5 μg/mL,Candida glabrata,0
same,Number of isolates inhibited at MIC 1 μg/mL,Candida glabrata,0
same,Number of isolates inhibited at MIC 2 μg/mL,Candida glabrata,3
same,Number of isolates inhibited at MIC 4 μg/mL,Candida glabrata,2
same,Number of isolates inhibited at MIC ≤0.008 μg/mL,Candida glabrata,1
same,MIC50,"Candida glabrata; Nakaseomyces glabratus, read-out: MIC50",0.015 µg/mL
same,MIC90,"Candida glabrata; Nakaseomyces glabratus, read-out: MIC90",0.03 µg/mL
same,MIC,"Candida glabrata; Nakaseomyces glabratus, read-out: MIC according to CLSI method",2 µg/mL
same,MIC,"Candida glabrata; Nakaseomyces glabratus, read-out: MIC results",2 to 4 µg/mL
